Data taken from patent US20230398087A1, “APPLICATION OF BZP IN TREATMENT OF ISCHEMIC CARDIOVASCULAR AND CEREBRAL VASCULAR DISEASES” (priority 2020, published 2023).

Test system: acute global cerebral ischemia in rats
Test: Acute global cerebral ischemia in rats, volume of cerebral infarction (nuclear magnetic resonance)
Type: in vivo
Conditions: BZP 0.75, 3, 12 and 24 mg/kg; Br-NBP 10.5 mg/kg; NBP-K 9.6 mg/kg; vs model group
Source text: 2.7 The Protective Effect of BZP on Acute Global Cerebral Ischemia in Rats: […]

## CCCCC1OC(=O)c2cc(Br)ccc21 (centres unmarked) [Br-NBP, reference compound]
  volume of cerebral infarction: significantly reduce

## CCCCC(O)c1ccccc1C(=O)[O-].[K+] (centres unmarked) [NBP-K, reference compound]
  volume of cerebral infarction: significantly reduce
